Source: article PMC7226045, “Ensartinib (X-396) Effectively Modulates Pharmacokinetic Resistance Mediated by ABCB1 and ABCG2 Drug Efflux Transporters and CYP3A4 Biotransformation Enzyme” (Cancers, 2020)
Read-outs that look alike come from different tables or passages of the source.

What was measured:
HepG2-CYP3A4 cells = assay: Docetaxel combination assay (MTT), HepG2-CYP3A4; assay type: cell-based, human; conditions: 1 µM docetaxel
Protocol: (§1) MTT proliferation assay was performed as described previously.
(§2) Cell viability was measured after a 48 h incubation using the MTT method as described above. […] Sensitization effects of < 0%, 0%, and >0% indicate antagonism, additivity, and synergism, respectively.

HL60-ABCG2 cells = assay: XTT proliferation / drug combination assay, HL60-ABCG2; assay type: cell-based, human; conditions: Homo sapiens, cytostatic alone or with 10 µM ensartinib, 48 h
Protocol: (§3) The MTT method is not readily adapted for use with suspension cell cultures, therefore the XTT assay was used to assess the proliferation of HL60 cells. Briefly, HL60-par, HL60-ABCB1, HL60-ABCG2, and HL60-ABCC1 cells were seeded at 2 × 10^4 cells/well in 96-well culture plates. Immediately after seeding, dilutions of the tested drugs or drug combinations were added to the cells. The plates were then incubated under standard conditions (37 °C, 5% CO2) for 48 h, after which XTT solution in PBS (1 mg/mL) and phenazine methosulfate (7.50 µg/mL) were added to the cells and the plates were incubated for another 5 h. Finally, the cells’ absorbance was measured at 450 nm using a microplate reader (Infinite M200, Tecan, Salzburg, Austria). This method was used to assess the effect of ABC transporters on sensitivity to ensartinib and in drug combination assays.
(§4) Experiments focusing on the modulation of ABC transporter-mediated resistance were performed as described previously. The parent MDCKII and HL60 cells and their ABCB1-, ABCG2-, and ABCC1-overexpressing counterparts were seeded at the densities specified above onto 96-well culture plates and cultured for 24 h. The medium was subsequently replaced with serial dilutions of ensartinib alone or with various concentrations of a model MDR-susceptible cytostatic agent (daunorubicin or mitoxantrone) with or without 10 µM ensartinib. After 48 h incubation, the cells’ viability was determined as described above. In addition to performing IC50-shift analyses, the viability measurements were converted to FA (fraction of cells affected) values and the effects of drug combinations were quantified using the Chou-Talalay combination index (CI) method as implemented in CompuSyn 3.0.1 (ComboSyn Inc., Paramus, NJ, USA). The effects of concomitantly administered drugs were classified as synergistic (CI < 0.9), additive (0.9 < CI < 1.1), or antagonistic (CI > 1.1) based on the computed CI values.

HL60-parent cells = assay: XTT proliferation / drug combination assay, HL60-parent; assay type: cell-based, human; conditions: Homo sapiens, 48 h
Protocol: The parent MDCKII and HL60 cells and their ABCB1-, ABCG2-, and ABCC1-overexpressing counterparts were seeded at the densities specified above onto 96-well culture plates and cultured for 24 h. The medium was subsequently replaced with serial dilutions of ensartinib alone or with various concentrations of a model MDR-susceptible cytostatic agent (daunorubicin or mitoxantrone) with or without 10 µM ensartinib. After 48 h incubation, the cells’ viability was determined as described above. In addition to performing IC50-shift analyses, the viability measurements were converted to FA (fraction of cells affected) values and the effects of drug combinations were quantified using the Chou-Talalay combination index (CI) method as implemented in CompuSyn 3.0.1 (ComboSyn Inc., Paramus, NJ, USA). The effects of concomitantly administered drugs were classified as synergistic (CI < 0.9), additive (0.9 < CI < 1.1), or antagonistic (CI > 1.1) based on the computed CI values [57].

MDCKII-parent cells = assay: MTT proliferation / drug combination assay, MDCKII-parent; assay type: cell-based, canine; conditions: Canis lupus familiaris, 48 h
Protocol: as §1

MDCKII-ABCG2 cells = assay: MTT proliferation / drug combination assay, MDCKII-ABCG2; assay type: cell-based, canine; conditions: Canis lupus familiaris, cytostatic alone or with 10 µM ensartinib, 48 h
Protocol: as §1

HL60-ABCB1 cells = assay: XTT proliferation / drug combination assay, HL60-ABCB1; conditions: Homo sapiens, 48 h
Protocol: as §3, §4

MDCKII-ABCB1 cells = assay: MTT proliferation / drug combination assay, MDCKII-ABCB1; conditions: Canis lupus familiaris, 48 h
Protocol: MTT proliferation assay was performed as described previously. Cells were seeded on a 96-well culture plate at densities (in units of cells/well) of 1.3 × 10^4 for MDCKII-par, MDCKII-ABCB1, MDCKII-ABCG2, and MDCKII-ABCC1; 1.2 × 10^4 for A431-par, A431-ABCB1, A431-ABCG2 and A431-ABCC1; 1.2 × 10^4 for NCI-H1299; 2.0 × 10^4 for Caco-2; 5.0 × 10^4 for LS174T; and 6.0 × 10^4 for HepG2-CYP3A4 and HepG2-EV. After seeding, the cells were cultured for 24 h, then the media was removed and the cells were treated with serial dilutions of a drug or drug combination for 48 h. Vehicles containing media and 40% DMSO in media served as 100% and 0% viability controls, respectively. Upon completion of the 48 h period, the cells were washed once with 1× PBS, the media was replaced with an MTT solution in Opti-MEM (1 mg/mL), and the cells were incubated under standard conditions for 60 min. MTT solution was carefully removed and the resulting formazan crystals were immediately solubilized in DMSO. The cells were then shaken gently for 10 min, after which absorbance of their lysate was measured at 570 nm and 690 nm using a microplate reader (Infinite M200, Tecan, Salzburg, Austria); background values obtained at 690 nm were subtracted from the measurements obtained at 570 nm. This method was used to assess the effect of ABC transporters on sensitivity to ensartinib, in drug combination assays, and to identify drug concentrations appropriate for use in induction studies.
as §4

HepG2-EV cells = assay: Docetaxel combination assay (MTT), HepG2-EV; assay type: cell-based, human; conditions: 1 µM docetaxel, <0% antagonism, =0% additivity, >0% synergism
Protocol: as §1, §2

In the case of CC(=O)O[C@@]12CO[C@@H]1C[C@H](O)[C@@]1(C)C(=O)[C@H](O)C3=C(C)[C@@H](OC(=O)[C@H](O)[C@@H](NC(=O)OC(C)(C)C)c4ccccc4)C[C@@](O)([C@@H](OC(=O)c4ccccc4)[C@H]21)C3(C)C [docetaxel], the viability at 1 µM (HepG2-CYP3A4 cells; Homo sapiens, 48 h, HepG2-CYP3A4 vs HepG2-EV, read-out: viability of CYP3A4-overexpressing cells greater than that of empty vector cells) is reported as 24.4%.

O=C1c2c(O)ccc(O)c2C(=O)c2c(NCCNCCO)ccc(NCCNCCO)c21 [mitoxantrone] gave an IC50 (HL60-ABCG2 cells) of 666 nM, an IC50 (HL60-parent cells; HL60-parent, cytostatic alone or with 10 µM ensartinib, read-out: IC50) of 30.5 nM and an IC50 (MDCKII-parent cells; MDCKII-parent, cytostatic alone or with 10 µM ensartinib, read-out: IC50) of 1590 nM. The IC50 (MDCKII-ABCG2 cells) was 9980 nM.

COc1cccc2c1C(=O)c1c(O)c3c(c(O)c1C2=O)C[C@@](O)(C(C)=O)C[C@@H]3O[C@H]1C[C@H](N)[C@H](O)[C@H](C)O1 [daunorubicin] showed an IC50 (HL60-ABCB1 cells) of 2390 nM, an IC50 (HL60-parent cells) of 53.1 nM and an IC50 (MDCKII-ABCB1 cells) of 11900 nM. The IC50 (MDCKII-parent cells) was 947 nM.

CC(=O)N1CCN(c2ccc(OCC3COC(Cn4ccnc4)(c4ccc(Cl)cc4Cl)O3)cc2)CC1 (centres unmarked) [ketoconazole] was tested, and the “sensitization effect of combination with docetaxel” value (HepG2-EV cells) was “antagonistic” and the “sensitization effect of combination with docetaxel” value (HepG2-CYP3A4 cells; HepG2-CYP3A4, <0% antagonism, =0% additivity, >0% synergism) was “synergistic”.
